Measured values as given in the supplement of paper PMC10307832.

Tests used:
Assay in all cases: relative viability (nuclei count vs DMSO), 5 days (fraction); higher = more cells survive
AZD6482 + Pemetrexed = compound: Cc1cc([C@@H](C)Nc2ccccc2C(=O)O)c2nc(N3CCOCC3)cc(=O)n2c1 [AZD6482] + Nc1nc2[nH]cc(CCc3ccc(C(=O)N[C@@H](CCC(=O)O)C(=O)O)cc3)c2c(=O)[nH]1 [Pemetrexed] (partner 0.2 µM)
Outline: (§1)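 Cells from lung cancer lines were seeded into 1536-well plates and, one day later, dosed by pin tool. Treatments were either a single drug or a fixed dose of an anchor drug with five library-drug doses (not always all listed) in √10 steps. After 5 days, nuclei were stained in a one-step fixation (final 0.05% Triton X-100, 1% formaldehyde, 1 ug/ml Hoechst) and counted on 4× images, and relative viability is the treated-to-vehicle nuclei ratio, as the median of duplicate plates.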

AZD6482 + Lapatinib = compound: Cc1cc([C@@H](C)Nc2ccccc2C(=O)O)c2nc(N3CCOCC3)cc(=O)n2c1 [AZD6482] + CS(=O)(=O)CCNCc1ccc(-c2ccc3ncnc(Nc4ccc(OCc5cccc(F)c5)c(Cl)c4)c3c2)o1 [Lapatinib] (partner 2 µM)
Outline: as §1

AZD6482 + OSI-027 = compound: Cc1cc([C@@H](C)Nc2ccccc2C(=O)O)c2nc(N3CCOCC3)cc(=O)n2c1 [AZD6482] + COc1cccc2cc(-c3nc([C@H]4CC[C@H](C(=O)O)CC4)n4ncnc(N)c34)[nH]c12 [OSI-027] (partner 0.5 µM)
Outline: as §1

[1] = compound: COc1cc2nc(N3CCCN(C)CC3)nc(NC3CCN(Cc4ccccc4)CC3)c2cc1OC + COc1cc2c(Oc3ccc(NC(=O)C4(C(=O)Nc5ccc(F)cc5)CC4)cc3F)ccnc2cc1OCCCN1CCOCC1 [Foretinib] (partner 0.25 µM)
Outline: as §1

Cell Line | relative viability (AZD6482 + Pemetrexed; first compound 0.08 µM) | relative viability (AZD6482 + Pemetrexed; first compound 0.253 µM) | relative viability (AZD6482 + Pemetrexed; first compound 0.8 µM) | relative viability (AZD6482 + Pemetrexed; first compound 2.53 µM) | relative viability (AZD6482 + Pemetrexed; first compound 8 µM) | relative viability (AZD6482 + Lapatinib; first compound 0.08 µM) | relative viability (AZD6482 + Lapatinib; first compound 0.253 µM) | relative viability (AZD6482 + Lapatinib; first compound 0.8 µM) | relative viability (AZD6482 + Lapatinib; first compound 2.53 µM) | relative viability (AZD6482 + Lapatinib; first compound 8 µM) | relative viability (AZD6482 + OSI-027; first compound 0.08 µM) | relative viability (AZD6482 + OSI-027; first compound 0.253 µM) | relative viability (AZD6482 + OSI-027; first compound 0.8 µM) | relative viability (AZD6482 + OSI-027; first compound 2.53 µM) | relative viability (AZD6482 + OSI-027; first compound 8 µM) | relative viability ([1]; first compound 0.2 µM) | relative viability ([1]; first compound 0.6325 µM) | relative viability ([1]; first compound 2 µM) | relative viability ([1]; first compound 6.325 µM)
LU99A | 0.187 | 0.2 | 0.158 | 0.17 | 0.172 | 0.972 | 0.881 | 0.938 | 0.751 | 0.866 | 0.301 | 0.276 | 0.325 | 0.203 | 0.3 | 0.895 | 0.864 | 0.821 | 0.803
LXF-289 | 0.678 | 0.94 | 1.08 | 0.849 | 0.922 | 0.924 | 0.913 | 0.892 | 0.821 | 0.937 | 0.825 | 0.643 | 0.772 | 0.559 | 0.615 | 0.936 | 0.993 | 0.984 | 1
NCI-H23 | 0.651 | 0.484 | 0.715 | 0.375 | 0.43 | 1.03 | 0.848 | 1.32 | 0.644 | 0.855 | 0.592 | 0.512 | 0.592 | 0.364 | 0.302 | 0.914 | 1.06 | 1.12 | 0.918
NCI-H441 | 0.261 | 0.267 | 0.276 | – | 0.282 | – | – | – | – | – | 0.669 | 0.4 | 0.627 | – | 0.508 | 0.957 | 0.954 | 0.928 | 1.02
NCI-H522 | 0.932 | 0.933 | 1.11 | 0.87 | 0.923 | – | – | – | – | – | 0.599 | 0.784 | 0.635 | 0.688 | 0.54 | – | – | – | –
